Test results reported in patent EP0568946A1, “Compound TAN-1607A, its derivatives, their production, and use thereof” (TAKEDA CHEMICAL INDUSTRIES, LTD., priority 1992, dated 1993).

Test system: mice
Experiment: Acute toxicity test using mice
Assay type: in vivo
Conditions: 100 mg/kg administered intraperitoneally
Method: Further, no mice died in an acute toxicity test using mice in which the compound TAN-1607A (100 mg/kg) was administered intraperitoneally.

In the case of `CC(=O)OC(CCCC12OC(C(=O)O)C(O)(C(=O)O)C(C(=O)O)(O1)C(OC(=O)CCCCCCCC/C=C/c1ccccc1)C2O)C(C)C/C=C/c1ccccc1` (stereo not shown) [TAN-1607A], the “acute toxicity (mortality)” value is reported as “no mice died”.
